Here are results for one compound from US20030124554A1, “Screening method for compounds capable of modularing egr-1-regulated expression” (priority 2002, published 2003).

The assay deals with human cell co-culture system. Put plainly: In vitro angiogenesis co-culture system (angiogenesis kit, TCS Biologicals), tubule formation. The format is cell-based. The settings on record: 11 days co-culture; PECAM-1 staining; Egr-1 DNA 0.5-2.5 μg per well, VEGF protein 2 ng/ml, suramin 20 μM. Here is the method: Egr-1 under the control of the hCMV promoter (Houston et al, Arterioscler. Thromb. Vasc. Biol., 19; 281-289, 1999) was transfected into a human cell co-culture system designed to measure angiogenesis in vitro. The angiogenesis kit (TCS Biologicals) was used as described according to the manufacturer's instructions using VEGF protein (2 ng/ml) and suramin (20 μM) as positive and negative controls respectively for angiogenesis.
Optimisation of transfection in the co-culture system was performed using pGL3 control luciferase (Promega) with 1.0 μg and 0.5 μg CMV-β gal as a normalising plasmid for transfection control. Two ratios of lipid: DNA (v/w) were used; 2:1 and 4:1 (FIG. 3a.). CMV Egr-1 DNA was transfected at 0.5, 1.0, 1.5 and 2.5 μg per well in triplicate in a 24 well microtitre plate using Mirus Transit reagent (Cambridge Biosciences) at a ratio of 2:1 v/w DNA. VEGF protein positive control and suramin negative control was added to triplicate wells. After 11 days co-culture angiogenesis was determined by staining of cells for the endothelial cell marker PECAM-1 and visualisation using BCIP/NBT substrate.
Representative images of tubule formation using all four doses of Egr-1 expression plasmid together with VEGF (positive control) and suramin (negative control) were captured and processed by image analysis using Quantimet 600 image analyser and associated software. […]

On to `Cc1ccc(C(=O)Nc2ccc(S(=O)(=O)O)c3cc(S(=O)(=O)O)cc(S(=O)(=O)O)c23)cc1NC(=O)c1cccc(NC(=O)Nc2cccc(C(=O)Nc3cc(C(=O)Nc4ccc(S(=O)(=O)O)c5cc(S(=O)(=O)O)cc(S(=O)(=O)O)c45)ccc3C)c2)c1` [suramin], for which the tubule formation entry is given as “Decreased tubule formation”.
